Reference: patent publication US12649723B2, “Carbonohydrazonoyl dicyanide compounds comprising 2 or more aryl or heteroaryl connected via linker and use thereof” (KOREA INSTITUTE OF SCIENCE AND TECHNOLOGY, priority 2020, dated 2026)

Legend:
[1] = Liver microsome stability; format: in vitro ADME, human; conditions: amount of substrate remaining; compound 1 μM, 30 minutes, 37° C., NADPH
Experimental: (§1) The stability of liver microsomes due to the compounds prepared according to Examples 1 to 175 was confirmed. Specifically, four types of liver microsomes (human, dog, rat, and mouse, each 0.25 mg/mL), a 0.1 M phosphate buffer solution (pH 7.4), and each of the compounds at a concentration of 1 μM were mixed and pre-cultured at 37° C. for 5 minutes and further cultured at 37° C. for 30 minutes together with an NADPH generation system solution added thereto. Thereafter, the reaction was terminated by adding an acetonitrile solution containing an internal standard material (chloropropamide) and centrifuged for 5 minutes (14,000 rpm, 4° C.), and then a supernatant was injected into an LC-MS/MS system for analysis of substrate drugs to thereby evaluate metabolic stability due to 8 types of compounds.
(§2) The amount of the substrate remaining after the reaction was analyzed using the Shimadzu Nexera XR system and TSQ Vantage (Thermo). In an HPLC column, Kinetex XB-C18 (2.1 mm×100 mm, particle size of 2.6 μm; Phenomenex, USA) was used, and mobile phases were (A) distilled water containing 0.1% formic acid and (B) acetonitrile containing 0.1% formic acid. Analyst software (version 1.6.3) and Xcalibur (version 1.6.1) were used for data analysis.

Tau-BiFC cells = assay: Cell viability (cytotoxicity) in tau-BiFC cells, count of stained nuclei; format: cell-based; conditions: Forskolin-only group = 100% cell viability; for Cell viability (% @10 μM): compound 10 μM; for Cell viability: compounds marked *: measured at 3 μM
Outline: (§3)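 Tau-BiFC cells were exposed for 48 h to compound (1, 3, 10 μM for screening; 0.03–30 μM for dose-response) plus 30 μM Forskolin to induce aggregation. BiFC fluorescence was normalised to Forskolin-only minus untreated controls, with IC50 from nonlinear regression. Viability was Hoechst-stained nuclei counts relative to Forskolin-only wells.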

tau protein = biological target: T1, tau protein (Homo sapiens, UniProt P10636); assay: Tau-BiFC cell model: inhibition of tau protein aggregation; format: cell-based; conditions: for remaining activity at 10 µM / remaining activity at 3 µM: 48 h; for remaining activity at 10 µM: read-out: Response (% @10 μM); for IC50: Tau BiFC in cells, with Forskolin 30 μM, 48 hours; for remaining activity at 3 µM: compounds marked *: measured at 3 μM, read-out: Response
T1 construct: fused on or other part: Split fluorescent-protein halves for BiFC are fused to tau; In the published tau-BiFC line these are Venus VN173 and VC155
T1 sequence (P10636 2-441 isoform P10636-8 limits assumed): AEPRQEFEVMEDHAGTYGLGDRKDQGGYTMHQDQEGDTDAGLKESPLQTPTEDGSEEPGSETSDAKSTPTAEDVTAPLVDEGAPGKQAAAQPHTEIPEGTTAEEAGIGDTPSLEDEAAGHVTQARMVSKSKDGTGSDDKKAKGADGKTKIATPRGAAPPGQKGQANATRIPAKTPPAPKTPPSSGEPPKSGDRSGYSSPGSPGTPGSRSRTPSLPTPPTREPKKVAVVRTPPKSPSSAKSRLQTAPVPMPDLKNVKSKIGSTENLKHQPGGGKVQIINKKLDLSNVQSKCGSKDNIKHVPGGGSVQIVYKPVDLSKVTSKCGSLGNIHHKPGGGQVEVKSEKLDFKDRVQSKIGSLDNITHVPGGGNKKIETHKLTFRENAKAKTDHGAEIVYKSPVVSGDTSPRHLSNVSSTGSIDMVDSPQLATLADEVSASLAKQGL
Outline: as §3

[2] = Liver microsome stability; format: in vitro ADME, mouse; conditions: amount of substrate remaining; compound 1 μM, 30 minutes, 37° C., NADPH
Experimental: as §1, §2

[3] = Liver microsome stability; format: in vitro ADME, rat; conditions: amount of substrate remaining; compound 1 μM, 30 minutes, 37° C., NADPH
Experimental: as §1, §2

[4] = compound 10 μM, BiFC fluorescence, Forskolin-only group = 100% tau protein-aggregated state
[5] = Forskolin-only group = 100% tau protein-aggregated state

Compound | Human (%) [1] | Cell viability (% @10 μM) (Tau-BiFC cells) | remaining activity at 10 µM (tau protein; [4]) | IC50 (tau protein) | Cell viability (Tau-BiFC cells) | remaining activity at 3 µM (tau protein; [5]) | Mouse (%) [2] | Rat (%) [3] | Response (% @10 μM) (tau protein; [4])
N#CC(C#N)=NNc1ccc(NC(=O)c2nc3ccccc3s2)nc1 [Compound 31, (6-(benzo[d]thiazole-2-carboxamido)pyridin-3-yl)carbonohydrazonoyl dicyanide] | 28.7% | 114.3% | 0% | 540 nM |  |  |  |  | 
N#CC(C#N)=NNc1ccc(OCc2nc3ccccc3s2)cc1 [Compound 129, (4-(benzo[d]thiazol-2-ylmethoxy)phenyl)carbonohydrazonoyl dicyanide] |  | 106.9% | 0% | 200 nM |  |  |  |  | 
N#CC(C#N)=NNc1ccc(OCc2cc3ccccc3s2)cc1 [Compound 130, (4-(benzo[b]thiophen-2-ylmethoxy)phenyl)carbonohydrazonoyl dicyanide] |  | 113% | 0% |  |  |  |  |  | 
N#CC(C#N)=NNc1ccc(OCCc2ccc(Cl)cc2)nc1 [Compound 131, (6-(4-chlorophenethoxy)pyridin-3-yl)carbonohydrazonoyl dicyanide] |  | 33.4% | 10.6% |  |  |  |  |  | 
Cc1ccc(COc2ccc(NN=C(C#N)C#N)cc2C(F)(F)F)cc1 [Compound 132, (4-(4-methylbenzyloxy)-3-(trifluoromethyl)phenyl)carbonohydrazonoyl dicyanide] |  | 39.2% | 0% |  |  |  |  |  | 
N#CC(C#N)=NNc1ccc(OCCc2ccc(Cl)cc2)c(C(F)(F)F)c1 [Compound 133, (4-(4-chlorophenethoxy)-3-(trifluoromethyl)phenyl)carbonohydrazonoyl dicyanide] |  | 39.7% | 0% |  |  |  |  |  | 
COc1ccc(CCOc2ccc(NN=C(C#N)C#N)cc2C(F)(F)F)cc1 [Compound 134, (4-(4-methoxyphenethoxy)-3-(trifluoromethyl)phenyl)carbonohydrazonoyl dicyanide] |  | 38.1% | 0% |  |  |  |  |  | 
N#CC(C#N)=NNc1ccc(OCCc2ccc(C(F)(F)F)cc2)c(C(F)(F)F)c1 [Compound 135, (3-(trifluoromethyl)-4-(4-(trifluoromethyl)phenethoxy)phenyl)carbonohydrazonoyl dicyanide] |  | 41.7% | 0% |  |  |  |  |  | 
CC(Oc1ccc(NN=C(C#N)C#N)cc1)c1ccc(C(F)(F)F)cc1 (centres unmarked) [Compound 139, (4-(1-(4-(trifluoromethyl)phenyl)ethoxy)phenyl)carbonohydrazonoyl dicyanide] |  |  |  |  | 123% | 39% |  |  | 
Cc1cc(NN=C(C#N)C#N)ccc1OCc1ccccc1 [Compound 141, (4-(benzyloxy)-3-methylphenyl)carbonohydrazonoyl dicyanide] |  |  |  | 866 nM | 109% | -25% |  |  | 
Cc1ccc(COc2ccc(NN=C(C#N)C#N)cc2C)cc1 [Compound 142, (3-methyl-4-(4-methylbenzyloxy)phenyl)carbonohydrazonoyl dicyanide] |  |  |  | 1610 nM | 111% | -5% |  |  | 
Cc1cnc(COc2ccc(NN=C(C#N)C#N)cc2C)cn1 [Compound 147, (3-methyl-4-((5-methylpyrazin-2-yl)methoxy)phenyl)carbonohydrazonoyl dicyanide] | 86.4% |  |  | 147 nM | 98% | -19% | 91.3% | 89% | 
Cc1cc(NN=C(C#N)C#N)ccc1OCc1ccc(C(F)(F)F)cc1 [Compound 148, (3-methyl-4-(4-(trifluoromethyl)benzyloxy)phenyl)carbonohydrazonoyl dicyanide] | 77.4% |  |  |  | 114% | 22% | >100% | 86.3% | 
Cc1cc(NN=C(C#N)C#N)ccc1OCc1cccnn1 [Compound 149, (3-methyl-4-(pyridazin-3-ylmethoxy)phenyl)carbonohydrazonoyl dicyanide] | 93.7% |  |  | 185 nM | 124% | -8% | 87.9% | 82.2% | 
Cc1cc(NN=C(C#N)C#N)ccc1OCc1cc2ccccc2s1 [Compound 150, (4-(benzo[b]thiophen-2-ylmethoxy)-3-methylphenyl)carbonohydrazonoyl dicyanide] | 80.7% |  |  |  | 118% | 11% | 99.5% | 78.7% | 
COc1cc(NN=C(C#N)C#N)ccc1OCc1ccc(C(F)(F)F)cc1 [Compound 155, (3-methoxy-4-(4-(trifluoromethyl)benzyloxy)phenyl)carbonohydrazonoyl dicyanide] | 95.4% |  |  |  | 80% | -43% | 90.8% | 82% | 
Cc1cc(NN=C(C#N)C#N)ccc1OCc1nc2ccccc2s1 [Compound 157, (4-(benzo[d]thiazol-2-ylmethoxy)-3-methylphenyl)carbonohydrazonoyl dicyanide] | 69.1% |  |  |  | 124% | 8% | 33.2% | 46% | 
COc1cc(NN=C(C#N)C#N)ccc1OCc1cc2ccccc2s1 [Compound 158, (4-(benzo[b]thiophen-2-ylmethoxy)-3-methoxyphenyl)carbonohydrazonoyl dicyanide] | 36.9% |  |  | 268 nM | 96% | -33% | 73.7% | 48.2% | 
COc1cc(NN=C(C#N)C#N)ccc1OCc1ncccn1 [Compound 161, (3-methoxy-4-(pyrimidin-2-ylmethoxy)phenyl)carbonohydrazonoyl dicyanide] |  |  |  | 109 nM | 119% | -17% |  |  | 
COc1cc(NN=C(C#N)C#N)ccc1OCc1nc2ccccc2[nH]1 [Compound 163, (4-((1H-benzo[d]imidazol-2-yl)methoxy)-3-methoxyphenyl)carbonohydrazonoyl dicyanide] | 86.9% |  |  |  | 106% | 91% | 59.5% | 71.3% | 
COc1cc(NN=C(C#N)C#N)ccc1OCc1cccnn1 [Compound 164, (3-methoxy-4-(pyridazin-3-ylmethoxy)phenyl)carbonohydrazonoyl dicyanide] | 96.8% |  |  | 96 nM | 109% | -1% | 24.6% | 29.1% | 
COc1cc(NN=C(C#N)C#N)ccc1OCc1nc2ccccc2s1 [Compound 165, (4-(benzo[d]thiazol-2-ylmethoxy)-3-methoxyphenyl)carbonohydrazonoyl dicyanide] | 42.4% |  |  |  | 113% | -40% | 69.6% | 42.4% | 
COc1cc(NN=C(C#N)C#N)ccc1OCc1cscn1 [Compound 167, (3-methoxy-4-(thiazol-4-ylmethoxy)phenyl)carbonohydrazonoyl dicyanide] |  |  |  | 10 nM | 118% | -38% |  |  | 
COc1cc(NN=C(C#N)C#N)ccc1OCc1csc(C)n1 [Compound 171, (3-methoxy-4-((2-methylthiazol-4-yl)methoxy)phenyl)carbonohydrazonoyl dicyanide] | 79.2% |  |  |  |  |  | 70.3% | 80.3% | 
COc1cc(NN=C(C#N)C#N)ccc1OCc1cccs1 [Compound 172, (3-methoxy-4-(thiophen-2-ylmethoxy)phenyl)carbonohydrazonoyl dicyanide] | 73.3% |  |  |  |  |  | 57.3% | 65.3% | 
COc1cc(NN=C(C#N)C#N)ccc1OCc1cnn(C)c1 [Compound 174, (3-methoxy-4-((1-methyl-1H-pyrazol-4-yl)methoxy)phenyl)carbonohydrazonoyl dicyanide] | 72% |  |  |  |  |  | >100% | 54.3% | 
(2-methoxy-4-(5-methylpyrazine-2-carboxamido)phenyl)carbonohydrazonoyl dicyanide [Compound 4] |  | 67% |  |  |  |  |  |  | 30.7%
